Experimental data reported in patent US20080064668A1, “1,3-Diacylated, 26,27-Alkyl/Haloakyl Vitamin D3 Compounds and Methods of Use Thereof” (BioXell S.p.A., priority 2003, published 2008).

What was measured:
NHEK = experiment: Proliferation assay, NHEK normal human keratinocytes; type: cell-based; settings: Homo sapiens, NHEK; 72 h culture, CyQuant proliferation assay
Description: (§1) Bladder cancer cell lines (T24, RT112, HT1376 and RT4 are human bladder cancer cell lines; NHEK are normal human keratinocytes) were obtained from the European Collection of Cell Cultures (Salisbury, UK). Cells were plated at 3×10^3 per well, in flat bottomed 96-well plates in 100 μl of DMEM medium containing: 5% Fetal Clone I, 50 μg/l gentamicin, 1 mM sodium pyruvate and 1% non-essential amino acids. After culturing for 24 h at 37° C. in 5% CO2, to allow cells to adhere to the plates, VDR ligands (compounds (2), (4), (5) and other vitamin D3 analogs as shown in Table 4) were added at concentrations ranging from 100 μM to 0.3 μM in 100 μl of above-mentioned complete medium. After a further 72 h of culture, cell proliferation was measured using a fluorescence-based proliferation assay kit. (CyQuant Cell Proliferation Assay Kit, Molecular Probes, Eugene, Oreg., USA). The IC50 was calculated from the regression curve of the titration data.

RT4 = experiment: Proliferation assay using bladder cancer cell lines, RT4; type: cell-based, human; settings: Homo sapiens, 72 h culture, CyQuant proliferation assay
Description: as §1

IFN-γ production = IFN-γ production in the mixed leukocyte response (MLR); type: cell-based; settings: 120 h; allogeneic PBMC from 2 donors, 5 days, ELISA; read-out: INF-γ IC50
Description: Immature dendritic cells (DC) were prepared as described in Romani, N. et al. (Romani, N. et al. (1996) J. Immunol. Meth. 196:137). IFN-γ production by allogeneic T cell activation in the mixed leukocyte response (MLR) was determined as described in Penna, G., et al., J Immunol., 164: 2405-2411 (2000).
Briefly, peripheral blood mononuclear cells (PBMC) were separated from buffy coats by Ficoll gradient and the same number (3×10^5) of allogeneic PBMC from 2 different donors were co-cultured in 96-well flat-bottom plates. The vitamin D3 compounds were added to each of the cultures.

ECV = experiment: Proliferation assay using bladder cancer cell lines, ECV; type: cell-based, human; settings: Homo sapiens; 72 h culture, CyQuant proliferation assay
[1] = Determination of Maximum Tolerated Dose (MTD); settings: female, C57BL/6, mouse, in vivo, po
Description: The maximum tolerated dose of the vitamin D3 compounds of the invention were determined in eight week-old female C57BL/6 mice (3 mice/group) dosed orally (0.1 ml/mouse) with various concentrations of Vitamin D3 analogs daily for four days. Analogs were formulated in miglyol for a final concentration of 0.01, 0.03, 0.1 0.3, 1, 3, 10, 30, 100 and 300 μg/kg when given at 0.1 ml/mouse p.o. daily. Blood for serum calcium assay was drawn by tail bleed on day five, the final day of the study.

Human BPH cells = experiment: BPH cell proliferation assay (testosterone-induced); type: cell-based; settings: 48 h
Description: Human BPH cells, prepared, maintained and used as previously described in Crescioli C, et al. Journal of Clinical and Endocrinology Metabolism (2000) 85 p 2576-2583, were obtained from prostate tissues derived from 5 patients, who underwent suprapubic adenomectomy for BPH, after informed consent and approval by the Local Ethical Committee.
For all cell proliferation assays, 4×10^4 BPH cells were seeded onto 12-well plates in their growth medium, starved in red- and serum-free medium containing 0.1% BSA for 24 h, and then treated with specific stimuli for 48 h. Cells in phenol red- and serum-free medium containing 0.1% BSA were used as controls. Thereafter, cells were trypsinized, and each experimental point was derived from hemocytometer counting, averaging at least six different fields for each well, as previously reported (see Crescioli C, et al. Journal of Clinical and Endocrinology Metabolism (2000) 85 p 2576-2583).
Growth assays were also carried out using a fixed concentration of androgens (10 nM) with or without vitamin-D analogs (1 nM, 10 nM) or the anti-androgens finasteride (F, 1 nM) and cyproterone acetate (Cyp, 100 nM. Growth assays were also performed using a fixed concentration of T (10 nM) or GFs (10 ng/ml) with or without the vitamin-D analogs. (10 nM).
In the same experiment, each experimental point was repeated in triplicate or quadruplicate and experiments were performed 3 times. Results are expressed as % variation (mean±SEM) over the maximal T or GF-induced stimulation.

RT112 = experiment: Proliferation assay using bladder cancer cell lines, RT112; type: cell-based, human; settings: Homo sapiens, 72 h culture, CyQuant proliferation assay
Description: as §1

HT 1376 = experiment: Proliferation assay using bladder cancer cell lines, HT1376; type: cell-based, human; settings: Homo sapiens, HT-1376; 72 h culture, CyQuant proliferation assay
Description: as §1

[2] = MTD in CD1 mouse (highest non-hypercalcemic dose); settings: in vivo
[3] = test system: human stromal bladder cells; experiment: Inhibition of basal human bladder cell growth; type: cell-based
Excerpt: The Inventors confirmed the presence of vitamin D receptors (VDRs), as previously reported in the literature, on these cells (see below in FIG. 3).
(§2) The maximum tolerated dose (MTD) in rats is also listed for each compound (Table 7).

[4] = Maximum tolerated dose (MTD) in rats (Table 7); settings: rat, in vivo
Excerpt: as §2

SMILES	IC50 (NHEK)	IC50 (RT4; RT-4, 72 h)	IC50 (IFN-γ production)	IC50 (ECV)	MTD at 4 days [1]	IC50 (Human BPH cells)	IC50 (RT112; RT-112, 72 h)	IC50 (HT 1376)	MTD [2]	inhibiting the basal growth of bladder cells ([3]; human stromal bladder cells in culture)	IC50 (RT4; RT-4)	IC50 (RT112; RT-112)	MTD [4]	IC50 ([3]; Homo sapiens)
C=C1/C(=C\C=C2/CCC[C@]3(C)C(C(C)CC#CC(C)(C)O)=CCC23)CC(OC(C)=O)C[C@@H]1OC(C)=O (stereo partly drawn) [(7), 1,3-Di-O-acetyl-1,25-dihydroxy-16-ene-23-yne-cholecalciferol]	4.8 µM	80 µM	0.051 nM	27.7 µM	0.01 mg/kg	42.7 µM	3 µM	> 100 µM	0.01 mg/kg					
CC(=O)OC1C/C(=C/C=C2\CCC[C@@]3(C)C2CCC3C2(CC#CC(O)(C(F)(F)F)C(F)(F)F)CC2)C[C@@H](OC(C)=O)C1 (stereo partly drawn) [(27), 1,3-Di-O-acetyl-1,25-dihydroxy-20-cyclopropyl-23-yne-26,27-hexafluoro-19-nor-cholecalciferol]	2.6 µM		0.078 nM	25.5 µM	0.01 mg/kg	0.000794 µM		43 µM	0.01 mg/kg					
C=C1/C(=C\C=C2/CCC[C@]3(C)[C@@H]([C@H](C)CCCC(C)(C)O)CC[C@@H]23)C[C@@H](O)C[C@@H]1O [Calcitriol, 1,25-dihydroxycholecalciferol, reference compound]	4.9 µM		0.022 nM		0.001 mg/kg	0.0851 µM		50 µM	0.001 mg/kg	effective	45 µM	19 µM		
C=C1/C(=C\C=C2/CCC[C@@]3(C)C2CCC3C(C)CC#CC(C)(C)O)CC(OC(C)=O)C[C@@H]1OC(C)=O (stereo partly drawn) [(41), 1,3-Di-O-acetyl-1,25-dihydroxy-23-yne-cholecalciferol]	4.2 µM	85 µM	0.08 nM	40 µM	0.001 mg/kg	0.000724 µM	8 µM	> 100 µM	0.001 mg/kg					
C=C1/C(=C\C=C2/CCC[C@]3(C)C(C(C)CC#CC(O)(C(F)(F)F)C(F)(F)F)=CCC23)CC(OC(C)=O)C[C@@H]1OC(C)=O (stereo partly drawn) [(14), 1,3-Di-O-acetyl-1,25-dihydroxy-16-ene-23-yne-26,27-hexafluoro-cholecalciferol]	0.98 µM	19 µM	0.0273 nM	> 100 µM	0.01 mg/kg	501 µM	26 µM	> 100 µM	0.01 mg/kg					
CC(=O)OC1C/C(=C/C=C2\CCC[C@@]3(C)C2CCC3C2(CC#CC(OC(C)=O)(C(F)(F)F)C(F)(F)F)CC2)C[C@@H](OC(C)=O)C1 (stereo partly drawn) [(26), 1,3,25-Tri-O-acetyl-1,25-dihydroxy-20-cyclopropyl-23-yne-26,27-hexafluoro-19-nor-cholecalciferol]	32.8 µM	5 µM	0.922 nM	63.5 µM	0.01 mg/kg	> 100000 µM	15 µM	> 100 µM	0.01 mg/kg					
C=C1/C(=C\C=C2/CCC[C@@]3(C)C2CCC3C2(CC#CC(C)(C)O)CC2)CC(OC(C)=O)C[C@@H]1OC(C)=O (stereo partly drawn) [(29), 1,3-Di-O-acetyl-1,25-dihydroxy-20-cyclopropyl-23-yne-cholecalciferol]	5.9 µM	13 µM	0.0078 nM	49.6 µM	0.03 mg/kg	0.00316 µM	8 µM	80 µM	0.03 mg/kg				0.03 mg/kg	< 10000 µM
